Test results: US9683986B2, “Treatment of cancer by inhibition of the MYD88/ERK MAP kinase interaction” (CENTRE LEON BERARD, priority 2011, dated 2017)

Tested on: HCT116 p53+/+ or p53−/− tumor
Assay: Subcutaneous HCT116 shMyD88 tumors in nude mice, doxycyclin-induced MyD88 extinction
Assay type: in vivo
Details: HCT116 cells stably expressing doxycyclin-inducible MyD88 shRNA, treated with doxycyclin
Experimental: Then we generated HCT116 p53+/+ or p53−/− stably expressing a doxycyclin-inducible MyD88 shRNA. These cell lines were subcutaneously implanted in nude mice, then the mice were treated or not with doxycyclin to induce MyD88 extinction in the tumor.

Q: With “MyD88 shRNA: doxycyclin-inducible MyD88 shRNA stably expressed in HCT116 cells (sense CGGACCCTAAATCCAATAGAAA; antisense TTTCTATTGGATTTAGGGTCCT)” as the substance, how does the “Tumor growth in vivo” value read?
A: blocks tumor growth in vivo
